The values below come from patent US20240074473A1, “METHOD FOR INDUCING HYPERTROPHIC MUSCLE FIBERS FOR INDUSTRIAL MEAT PRODUCTION” (Yeda Research and Development Co. Ltd., priority 2021, published 2024).

Where two headings read alike, the source gives them in different places.

Data set [1] deals with primary mouse myoblasts. Description: Fusion index of primary mouse myoblasts (MyHC immunostaining). The format is cell-based. How it is done:
(§1) Isolation of and treatment of primary myoblasts. Primary mouse myoblasts were isolated from gastrocnemius muscle using trypsin-tissue dissociation. Briefly, muscle tissues were incubated in Trypsin B (0.25%, Biological Industries) and subjected to mechanical dissociation with a serological pipet. Supernatants were strained and centrifuged. Pellets were grown resuspended in BioAmf-2 media (Biological Industries, Israel) and plated on 10% Matrigel (BD Biosciences)-coated plates at 37° and 5% CO2. For all in vitro experiments, proliferation medium was Bio-Amf2 (Biological Industries, Israel) and Differentiation medium (DM) was DMEM 2% Horse Serum (HS) with 1% Pen/Strep. For fusion assays, cells were trypsinized with Trypsin C (0.05%, Biological Industries) and subjected to two rounds of preplating on uncoated plates to reduce the number of fibroblasts. Cells were plated at a density of 8×10^3 per well in 10% Matrigel-coated 96-well plates in proliferation medium for 24 hours. The following day, proliferation media was replaced either with proliferation media or with DM containing DMSO (Ctrl) or 1 μM ERK1/2 inhibitor (ERKi; SCH772984, Cayman Chemicals), […] RXR antagonist (RXRi; HX-531, Cayman Chemicals), […] Ryanodine receptor antagonist (RYRi; Dantrolene, Cayman Chemicals), 5 μM CaMKII inhibitor (CaMKIIi; KN93, Cayman Chemicals), or with DM for controls.
(§2) Immunofluorescence staining. First passage primary myoblasts isolated from various strains (indicated in figure legends) were plated in 96-well plates or chamber slides and treated as previously described. The cells were fixed with ice cold 4% PFA in PBS for 10 minutes, permeabilized with 0.5% Triton X-100 in PBS for 6 minutes, and blocked in PBS with 0.025% tween, 10% normal horse serum and 10% normal goat serum for 1 hour at room temperature. Primary antibody incubation was done in blocking buffer overnight at 4 degrees, with the following antibodies: Myosin Heavy Chain (MyHC, MF20, DSHB hybridoma supernatant 1:10, or MY-32 ABCAM ab51263 1:400), Myogenin (MYOG sc-13137 SCBT 1:200), pHistone 3 (PH3, ab47297 ABCAM 1:1000), Ki-67 (Cell Marque #275R), RYR (ab2868 ABCAM 1:100), and pCaMKII (SIGMA SAB4504356 1:100). Cells were washed 3 times in PBS with 0.025% tween and then incubated with appropriate secondary antibodies in PBS 1 hour. Where indicated, nuclei were either labeled with DAPI (SIGMA D9542, 5 ug/ml) or Hoechst 33342 (Thermo scientific #62249, 1:2000). Fixed cells at 24 hours post treatment with indicated inhibitors were imaged using the Nikon Eclipse Ti2 microscope (further described in microscopy section). All analysis was performed on at least 1000 nuclei. […]
Quantification of fusion index. Following immunostaining and imaging, a fusion index was quantified by manually identifying nuclei found in a MyHC positive cell with at least 2 nuclei. Then the values were expressed as a percentage of the total nuclei per field. Briefly, in Figures where fusion index is stratified into subgroups of fiber size, the nuclei number in MyHC positive cell was manually quantified in a given field and stratified into groups of mononucleated, bi-nucleated myotubes, myotubes with 3-10 nuclei and myotubes with greater than 10 nuclei. […] Fields were analyzed hourly, and nuclei per cell was quantified and stratified into mononucleated, bi-nucleated, tri-nucleated and cells with ≥4 nuclei.

The test system of data set [2] is primary mouse myoblasts. Description: MYOG positive nuclei in primary mouse myoblasts (immunofluorescence). The format is cell-based. Conditions: co-treatment with 1 μM ERKi, 24 hrs; HX531 20 uM, Dantrolene 50 uM, BAPTA-AM 10 uM, KN93 5 uM. How it is done:
as §1
Immunofluorescence staining. First passage primary myoblasts isolated from various strains (indicated in figure legends) were plated in 96-well plates or chamber slides and treated as previously described. The cells were fixed with ice cold 4% PFA in PBS for 10 minutes, permeabilized with 0.5% Triton X-100 in PBS for 6 minutes, and blocked in PBS with 0.025% tween, 10% normal horse serum and 10% normal goat serum for 1 hour at room temperature. Primary antibody incubation was done in blocking buffer overnight at 4 degrees, with the following antibodies: Myosin Heavy Chain (MyHC, MF20, DSHB hybridoma supernatant 1:10, or MY-32 ABCAM ab51263 1:400), Myogenin (MYOG sc-13137 SCBT 1:200), pHistone 3 (PH3, ab47297 ABCAM 1:1000), Ki-67 (Cell Marque #275R), RYR (ab2868 ABCAM 1:100), and pCaMKII (SIGMA SAB4504356 1:100). Cells were washed 3 times in PBS with 0.025% tween and then incubated with appropriate secondary antibodies in PBS 1 hour. Where indicated, nuclei were either labeled with DAPI (SIGMA D9542, 5 ug/ml) or Hoechst 33342 (Thermo scientific #62249, 1:2000). Fixed cells at 24 hours post treatment with indicated inhibitors were imaged using the Nikon Eclipse Ti2 microscope (further described in microscopy section). All analysis was performed on at least 1000 nuclei. For fixed cells following the timecourse with ERKi or DM (FIG. 1B), images were captured with an inverted Olympus IX83 microscope (further details in microscopy section). All imaging analysis were performed on at least 1000 cells.

The test system of data set [3] is primary mouse myoblasts. Description: qRT-PCR gene expression in primary mouse myoblasts. The format is cell-based. How it is done:
Quantitative real-time PCR (qRT-PCR). Total RNA was isolated using Tri-Reagent (SIGMA) according to the manufacturer's instructions. cDNA was synthesized with the High Capacity cDNA Reverse Transcription Kit (Applied Biosystems according to the manufacturer's instructions. qRT-PCR was performed with SYBR green PCR Master Mix (Applied Biosystems) using the StepOnePlus Real-time PCR system (Applied Biosystems). Values for specific genes were normalize to either Gapdh or Hprt housekeeping control as indicated in Figure legend. Expression was calculated using the ddCT method.
First passage primary mouse derived myoblast were seeded in proliferation media, in equal number in 12-well tissue culture plates that were precoated with 10% Matrigel solution. Following 24 hours to allow for complete attachment, culture media was washed and replaced either with fresh proliferation media (PM), PM supplemented with 1 uM SCH 772984 (ERKi) or differentiation media (DM). After 24 hrs, cells were lysed and RNA was collected. Gene expression analysis was carried out using SYBR green qRT-PCR analysis.
On the technique in general: Real-time PCR tracks product formation cycle by cycle.

In data set [4] the test system is primary mouse myoblasts. Description: Proliferation markers KI-67 and pH3 staining in primary mouse myoblasts. The format is cell-based. The following applies: co-treatment of ERKi with CaMKIIi. How it is done: as §2
The subject of a further data set is CaMKII. Description: Western blot of CaMKII activation (p-CaMKII T287) in myoblasts. The format is cell-based, mouse. The following applies: co-treatment with ERKi and 5 uM KN93, 24 hrs. How it is done:
Western Blot analysis. Cultured cells and whole tissues extracts were prepared with RIPA buffer supplemented with protease inhibitor cocktail (SIGMA P8340), and phosphatase inhibitor cocktails (SIGMA P5726 and P0044). Western blotting was performed using the Mini-PROTEAN Tetra Cell electrophoresis system, and transferred to PVDF membranes. The following primary antibodies concentrations were used p-CAMKII 1:1000 (Abcam ab182647), CaMKII 1:1000 (Cell Signaling 3362), GAPDH 1:10,000 (Abcam ab181602), p-ERK1/2 1:20,000 (SIGMA M9692), ERK1/2 1:40,000 (SIGMA), Myosin Heavy Chain (MF-20 DSHB hybridoma supernatant 1:100) Horseradish peroxidase conjugated secondary anti-mouse, anti-rabbit or anti-goat was used to detect proteins (Jackson Immunology). Western blots were imaged using the Chemidoc Multiplex system (Bio-rad).

In data set [5] the test system is primary mouse myoblasts. Description: Cell motility of myoblasts. Conditions: co-treatment with ERKi and CaMKIIi. The format is cell-based.
Data set [6] can be described thus: Maximum estimated dietary exposure to media ingredients per 100 g serving. The following applies: assumption of complete transfer of media components to the finished product on a wt/wt basis.
Data set [7] in a line: Risk categorization of cell culture media ingredients. From the text:
Category 1: These cell culture media components are food ingredients/additives that are GRAS or permitted by federal regulation without limitation on use. Exemplary compounds in this category include innocuous ingredients such as sugars, pH buffers, water soluble vitamins, and common antioxidants such as tocopherols.
(§3) Category 2: These cell culture media components are common dietary nutrients and are anticipated to have GRAS status for food use or be permitted by regulation for addition to food. Examples of such compounds include most of the inorganic salts and macronutrients that are present within the cell culture media. […] Majority of nutrients present within the poultry cell-based meat may be readily measured using common validated methods for food composition testing. Batch analyses of multiple lots of the finished product may be obtained to validate the above assumptions. In some instances, consideration of established safe levels (e.g., ADI, UL) derived from a relevant authoritative body (e.g., U.S. FDA, EFSA, JECFA, FSANZ, U.S. EPA) may be leveraged to support safety. If comparisons of anticipated dietary intakes relative to an authoritative reference intake value is used, consideration of additive intakes from all dietary sources may be considered. In the absence of an authoritative reference intake value, published NOAELs from animal toxicology studies may be used to evaluate safety using standard scientific procedures for food safety evaluation. A margin of exposure (MoE) of 100-fold or greater between the NOAEL and estimated dietary intakes from food exposures is typically considered adequate to support safety. in situations where the MoE is <100-fold, additional measures for further reduction of the media component may be necessary, or further characterization of intraspecies/interspecies differences in metabolism may be necessary. These situations also require careful consideration of the regulatory status on a case-by basis (e.g., premarket approval as a food additive or GRAS evaluation required).
For example, situations where the compound is not detectable in finished product or is present at equivalent levels in comparator foods, compounds that are thermo-labile and will be digested during cooking, and/or compounds that are expected to be digested to innocuous compounds following ingestion. Examples of compounds meeting the aforementioned conditions would include recombinant growth factors and serum components. For Category 3 substances a final consideration in the safety assessment process may involve hazard characterization of the potential for a substance to produce toxic biological effects outside of the endpoints measured in a sub-chronic rat toxicity study. Substances with biological activity may require additional hazard characterization related to reproductive and developmental toxicity, or immunotoxicity. Considerations for allergenicity, biological effects in humans (e.g., effects on blood pressure), and synergistic effects with other media components also may be evaluated. […] Examples of category 3 components include recombinant proteins and animal serum.

A short description of data set [8]: Margin of estimated intake below NOAEL of rat toxicity study. The format is in vivo.
Source text: as §3

Where [9] appears, read: cell culture media ingredient used during meat production.

As to `CC(=O)OCOC(=O)CN(CC(=O)OCOC(C)=O)c1ccccc1OCCOc1ccccc1N(CC(=O)OCOC(C)=O)CC(=O)OCOC(C)=O` [BAPTA-AM], in the data set on primary mouse myoblasts [1] (co-treatment with ERKi and BAPTA-AM (10 uM per FIG. 2B)), the “Reduction of ERKi-induced fusion” value was found to be 81%. Further, the “Differentiation (percent of MYOG positive nuclei) on co-treatment with ERKi” value in the data set on primary mouse myoblasts [2] was “without affecting early differentiation”.

For the molecule `O=C1CN(/N=C/c2ccc(-c3ccc([N+](=O)[O-])cc3)o2)C(O)=N1` [Dantrolene], the “Reduction of ERKi-induced fusion” value in the data set on primary mouse myoblasts [1] (co-treatment with ERKi and 50 uM Dantrolene) was found to be 60%. The “Differentiation (percent of MYOG positive nuclei) on co-treatment with ERKi” value in the data set on primary mouse myoblasts [2] is recorded as “without affecting differentiation”.

Turning to `CN1c2ccc([N+](=O)[O-])cc2N=C(c2ccc(C(=O)O)cc2)c2cc3c(cc21)C(C)(C)CCC3(C)C` [HX531], the “Ryr1 and Ryr3 mRNA expression” value with primary mouse myoblasts [3] (co-treatment with ERKi and RXRi, 24 hours post treatment) was “downregulation”. Besides, the “Suppression of ERKi-induced fusion” value with primary mouse myoblasts [1] (co-treatment with ERKi and 20 uM HX531, 24 hours) turned out to be 47%. In addition, the “Differentiation (percent of MYOG positive nuclei) on co-treatment with ERKi” value with primary mouse myoblasts [2] is “without affecting differentiation”.

As for `COc1ccc(S(=O)(=O)N(CCO)c2ccccc2CN(C)C/C=C/c2ccc(Cl)cc2)cc1` [KN93], the “ERKi-induced elevation of Mymk expression” value in the data set with primary mouse myoblasts [3] (co-treatment with ERKi and CaMKIIi) is listed as “partially suppressed”. Besides, the “Cell cycle arrest (pH3 staining, p21 and p27 expression) compared to ERKi alone” value with primary mouse myoblasts [4] was “did not affect cell cycle arrest”. In addition, in the data set with primary mouse myoblasts [1] (co-treatment with ERKi and 5 uM KN93, bi- and tri-nucleated MyHC+ cells maintained), the “Formation of polynucleated myotubes” value is recorded as “suppressed”. Also, in the data set on CaMKII, the “CaMKII activation (p-CaMKII T287)” value is recorded as “suppressed CaMKII activation”. Moreover, the “Cell motility compared to ERKi-treated cells” value in the data set on primary mouse myoblasts [5] is reported as “unchanged”. In addition, the “Differentiation (percent of MYOG positive nuclei) on co-treatment with ERKi” value with primary mouse myoblasts [2] is reported as “remained unaffected”.

`NCCO` [MONOETHANOLAMINE]: in data set [6], the “Maximum Estimated Exposure per 100 g serving” value was 160 mg. Also, the “Risk Assessment Category” value in data set [7] was found to be 2. The “Intakes for a 65 kg adult below NOAEL” value in [8] (rat NOAEL) is on record as “kg adult are 128 fold”.

With `O=[Se]([O-])[O-].[Na+].[Na+]` [SODIUM SELENITE (ANHY)], the “Maximum Estimated Exposure per 100 g serving” value in [6] is 0.19 mg. Besides, the “Risk Assessment Category” value in [7] (setting [9]) came to 2. For the same molecule, the “Intakes for a 65 kg adult below NOAEL” value in [8] (13 week rat NOAEL) was “are 133-fold below 13”.

Regarding `O.O.O.O.O.O.O=C([O-])CCC(=O)[O-].[Na+].[Na+]` [SODIUM SUCCINATE-2Na 6H20], the “Maximum Estimated Exposure per 100 g serving” value in data set [6] is 40 mg. Also, in data set [7] (setting [9]), the “Risk Assessment Category” value was determined as 2. Also, the “Intakes for a 65 kg adult below NOAEL” value in data set [8] (NOAEL from 2 year rat study) is “are >1000 fold below”.

Take `O=C(O)CCC(=O)O` [SUCCINIC ACID]: the “Maximum Estimated Exposure per 100 g serving” value in [6] is recorded as 200 mg. For the same molecule, the “Intakes for a 65 kg adult below NOAEL” value in [8] (NOAEL from 2 year rat study) is on record as “adult are 257-fold”.
